# Literature values in PubChem BioAssay AID493017 (Abbott Labs, 1994).
# Target: Platelet-derived growth factor receptor alpha (Homo sapiens) (UniProt P16234)
# Assay: PubChem AID 493017
# Conditions: WOMBAT literature affinities, multiple human targets; PDGFR; gene PDGFRA; NCBI gene 5156
# Chain of Platelet-derived growth factor receptor alpha (Homo sapiens) (P16234 whole entry, looked up): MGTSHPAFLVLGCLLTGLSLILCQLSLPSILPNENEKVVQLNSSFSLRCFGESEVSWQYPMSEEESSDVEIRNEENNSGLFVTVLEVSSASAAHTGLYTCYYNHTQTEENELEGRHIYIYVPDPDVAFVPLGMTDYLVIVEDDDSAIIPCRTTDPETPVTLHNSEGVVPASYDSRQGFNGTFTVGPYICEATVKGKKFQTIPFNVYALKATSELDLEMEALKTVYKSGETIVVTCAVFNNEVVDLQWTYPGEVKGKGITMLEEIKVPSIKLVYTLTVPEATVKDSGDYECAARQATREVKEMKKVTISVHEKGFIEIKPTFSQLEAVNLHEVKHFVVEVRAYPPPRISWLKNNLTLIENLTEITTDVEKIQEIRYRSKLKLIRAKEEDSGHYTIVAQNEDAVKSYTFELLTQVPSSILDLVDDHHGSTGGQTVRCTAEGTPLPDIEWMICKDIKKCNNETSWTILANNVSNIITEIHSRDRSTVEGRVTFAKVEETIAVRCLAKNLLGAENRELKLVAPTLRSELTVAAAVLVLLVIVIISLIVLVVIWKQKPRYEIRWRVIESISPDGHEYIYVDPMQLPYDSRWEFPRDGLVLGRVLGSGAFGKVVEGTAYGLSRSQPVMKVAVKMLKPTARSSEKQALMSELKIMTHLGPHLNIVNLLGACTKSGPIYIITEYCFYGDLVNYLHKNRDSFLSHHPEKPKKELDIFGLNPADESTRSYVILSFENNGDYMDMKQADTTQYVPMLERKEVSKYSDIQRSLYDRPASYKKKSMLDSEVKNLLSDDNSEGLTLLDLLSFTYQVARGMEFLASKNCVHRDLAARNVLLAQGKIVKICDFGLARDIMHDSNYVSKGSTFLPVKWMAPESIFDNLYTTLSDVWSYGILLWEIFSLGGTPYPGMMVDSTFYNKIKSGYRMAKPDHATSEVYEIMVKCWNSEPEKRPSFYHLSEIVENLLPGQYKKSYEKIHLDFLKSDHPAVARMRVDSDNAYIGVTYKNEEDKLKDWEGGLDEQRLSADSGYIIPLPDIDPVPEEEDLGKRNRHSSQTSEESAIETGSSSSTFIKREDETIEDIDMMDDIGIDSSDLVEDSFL
row,Structure (SMILES),IC50 [nM]
1,COc1cc2cc(C#Cc3ccccc3)cnc2cc1OC,31.6
2,COc1ccc(-c2cnc3cc(OC)c(OC)cc3c2)s1,158
3,COc1ccc(C=Cc2cnc3cc(OC)c(OC)cc3c2)cc1,54.8
4,COc1cc2cccnc2cc1OC,24500
5,COc1ccc(-c2cnc3cc(OC)c(OC)cc3c2)cc1,3.87
6,COc1cc2cc(C3=CCCC3)cnc2cc1OC,28.3
7,COc1cc2cc(NCc3ccccc3)cnc2cc1OC,40
8,COc1cc2cc(-c3ccc(=O)[nH]c3)cnc2cc1OC,21.2
9,COc1cc2cc(CCC3CCCCC3)cnc2cc1OC,387
10,COc1cc2cc(-c3ccccc3)cnc2cc1OC,102
11,COc1cc2cc(-c3ccc(O)cc3)cnc2cc1OC,24.5
12,COc1cc2cc(OCc3ccccc3)cnc2cc1OC,52.9
13,COc1cc2cc(-c3c[nH]c4ccccc34)cnc2cc1OC,245
14,COc1cc2cc(-c3ccc(C(=O)O)cc3)cnc2cc1OC,1870
15,COc1cccc(-c2cnc3cc(OC)c(OC)cc3c2)c1,1410
16,Oc1cc2cc(-c3cccnc3)cnc2cc1O,7750
17,COc1cc2cc(-c3ccc(Cl)c(Cl)c3)cnc2cc1OC,2650
18,COc1cc2cc(C3CCCC3)cnc2cc1OC,224
19,c1ccc2ncc(-c3c[nH]c4ccccc34)cc2c1,4000
20,COc1ccc(CCc2cnc3cc(OC)c(OC)cc3c2)cc1,400
21,COc1cc2cc(C#CC3CCCCC3)cnc2cc1OC,548
22,Fc1cc2cc(-c3ccsc3)cnc2cc1F,2830
23,COc1ccc(-c2cnc3cc(OC)c(OC)cc3c2)cc1C,200
